These results are taken from ChEMBL document CHEMBL3044895, “Insecticidal and Antiacetyicholinesterase Activities of Isobutylthioaryl Methanesulfonates” (J Pestic Sci, 1991).

One series concerns Plutella xylostella. Put plainly: Insecticidal activity against Plutella xylostella (diamondback moth) assessed as mortality at 200 ppm after 2 days by foliar spraying method. In kind it is functional. The note with it: 48 h.
The subject of series [1] is Nephotettix cincticeps. Put plainly: Insecticidal activity against drug-resistant Nephotettix cincticeps Izumi (green rice leafhopper) assessed as mortality […] after 2 days by foliar spraying method. In kind it is functional. Particulars: 48 h.
Series [2] can be described thus: Lipophilicity, log K of the compound. Particulars: octanol/water. Format: physicochemical.
Series [3] is described as follows: Drug degradation in sorensen buffer assessed as hydrolysis at 3 x 10^-5 M at pH 7.4 after 24 hr. In kind it is physicochemical. The note with it: read-out: Drug degradation.
The subject of another series is Tetranychus urticae. Put plainly: Acaricidal activity against Tetranychus urticae (two-spotted spider mite) assessed as mortality at 200 ppm after 2 days by leaf dipping method. In kind it is functional. Particulars: foliar, 48 h.
The test system of series [4] is Nilaparvata lugens. The series is described as follows: Insecticidal activity against Nilaparvata lugens (brown planthopper) assessed as mortality at 200 ppm after 2 days by foliar spraying method. In kind it is functional. Particulars: 48 h.
In the next series the test system is Culex pipiens. The series is described as follows: Insecticidal activity against Culex pipiens assessed as mortality at 200 ppm after 2 days by immersion method. In kind it is functional. Particulars: 48 h.
Series [5] has as its system Nephotettix cincticeps. Put plainly: Insecticidal activity against drug-susceptible Nephotettix cincticeps Ageo (green rice leafhopper) assessed as mortality […] after 2 days by foliar spraying method. In kind it is functional. Particulars: 48 h.
In series [6] the test system is Nephotettix cincticeps. Put plainly: Insecticidal activity against Nephotettix cincticeps Izumi (green rice leafhopper) assessed as mortality at 200 ppm after 6 days by foliar spraying method. In kind it is functional. Particulars: 144 h.
Series [7] has as its system Nephotettix cincticeps. Put plainly: Insecticidal activity against Nephotettix cincticeps Izumi (green rice leafhopper) assessed as mortality at 200 ppm after 2 days by foliar spraying method. In kind it is functional. Particulars: 48 h.
The test system of series [8] is Nilaparvata lugens. Put plainly: Insecticidal activity against Nilaparvata lugens (brown planthopper) assessed as mortality at 200 ppm after 6 days by foliar spraying method. Format: functional. The note with it: 144 h.

By mortality is commonly meant the share of the test organisms that died. The term LD50 denotes the dose at which mortality reaches 50%. In the case of `CC(C)CSc1cc(OS(C)(=O)=O)ncn1` [6-(ISOBUTYLTHIO)PYRIMIDIN-4-YL METHANESULFONATE], the mortality at 200 ppm with Plutella xylostella is 0%; in the series on Tetranychus urticae it was under 10%; in the series on Nilaparvata lugens [4], 80%; in the series with Culex pipiens it was 0%; in the series with Nephotettix cincticeps [6], 0%; in the series on Nephotettix cincticeps [7], 0%. Besides, the mortality at 200 ppm with Nilaparvata lugens [8] turned out to be 100%. The median lethal dose (LD50) with Nephotettix cincticeps [1] and in the series with Nephotettix cincticeps [5] was over 100 mg/kg throughout. For the same molecule, the “log K” value in series [2] is reported as 0.391. Further, in series [3], the degraded at 24 h, 30 µM was 100%.
As for `CC(C)CSc1cc(OS(C)(=O)=O)ccn1`, the mortality at 200 ppm is 70% in the series with Plutella xylostella; under 10% in the series with Tetranychus urticae; 70% in the series with Nilaparvata lugens [4]; 100% with Culex pipiens; 70% in the series on Nephotettix cincticeps [6]; 30% with Nephotettix cincticeps [7]. Besides, in the series with Nilaparvata lugens [8], the mortality at 200 ppm was determined as 100%. Moreover, the median lethal dose (LD50) amounted to 66.4 mg/kg in the series on Nephotettix cincticeps [1] and 5.4 mg/kg in the series with Nephotettix cincticeps [5]. For the same molecule, in [2], the “log K” value was found to be 0.379. In addition, the degraded at 24 h, 30 µM in series [3] was found to be 5.9%.
